Laboratory results published in patent publication US20140213513A1 (Sanofi, priority 2012, published 2014).
pEC50: −log10 of the molar value. *1 amine or outer side, *2 acyl side, *3 side chain or, on linkers, in order; H or OH if unused. Where a SMILES comes first, the peptide text is derived from it. Side-chain parts run from the residue outwards. [ ]: non-standard residue; d: D form. The star is where a group is joined. γGlu = O=C(O)[C@H](CCC(=O)[*:2])N[*:1]; Stearoyl = CCCCCCCCCCCCCCCCCC(=O)*; Palmitoyl = CCCCCCCCCCCCCCCC(=O)*; Aib = CC(C)(N)C(=O)O

What was measured:
Assay type in all cases: cell-based
Details in all cases: Table 7; cAMP formation
[1] = biological target: T1, human GLP-1 receptor (hGLP-1 R) (Homo sapiens, UniProt P43220); assay: cAMP response of HEK-293 cells stably expressing human GLP-1 receptor (HTRF)
T1 construct: expressed in transfected cells
T1 sequence (P43220 24-463): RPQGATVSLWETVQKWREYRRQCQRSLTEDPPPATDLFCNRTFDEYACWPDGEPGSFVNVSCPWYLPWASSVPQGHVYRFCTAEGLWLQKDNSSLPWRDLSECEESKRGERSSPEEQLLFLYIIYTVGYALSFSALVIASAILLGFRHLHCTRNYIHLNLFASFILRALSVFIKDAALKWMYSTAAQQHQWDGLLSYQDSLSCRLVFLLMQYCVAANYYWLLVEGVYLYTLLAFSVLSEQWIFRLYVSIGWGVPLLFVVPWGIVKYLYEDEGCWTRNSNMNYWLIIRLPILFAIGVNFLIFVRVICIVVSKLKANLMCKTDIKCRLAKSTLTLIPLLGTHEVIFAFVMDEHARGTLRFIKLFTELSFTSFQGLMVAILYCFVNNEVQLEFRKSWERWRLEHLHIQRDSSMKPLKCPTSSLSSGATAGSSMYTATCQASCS
Experimental: (§1) cAMP content of cells was determined using a kit from Cisbio Corp. (cat. no. 62AM4PEC) based on HTRF (Homogenous Time Resolved Fluorescence). For preparation, cells were split into T175 culture flasks and grown overnight to near confluency in medium (DMEM/10% FBS). Medium was then removed and cells washed with PBS lacking calcium and magnesium, followed by proteinase treatment with accutase (Sigma-Aldrich cat. no. A6964). Detached cells were washed and resuspended in assay buffer (1×HBSS; 20 mM HEPES, 0.1% BSA, 2 mM IBMX) and cellular density determined. They were then diluted to 400000 cells/ml and 25 μl-aliquots dispensed into the wells of 96-well plates. For measurement, 25 μl of test compound in assay buffer was added to the wells, followed by incubation for 30 minutes at room temperature.

[2] = biological target: T2, human GIP receptor (hGIP R) (Homo sapiens, UniProt P48546); assay: cAMP response of HEK-293 cells stably expressing human GIP receptor (HTRF)
T2 construct: expressed in transfected cells
T2 sequence (P48546 22-466): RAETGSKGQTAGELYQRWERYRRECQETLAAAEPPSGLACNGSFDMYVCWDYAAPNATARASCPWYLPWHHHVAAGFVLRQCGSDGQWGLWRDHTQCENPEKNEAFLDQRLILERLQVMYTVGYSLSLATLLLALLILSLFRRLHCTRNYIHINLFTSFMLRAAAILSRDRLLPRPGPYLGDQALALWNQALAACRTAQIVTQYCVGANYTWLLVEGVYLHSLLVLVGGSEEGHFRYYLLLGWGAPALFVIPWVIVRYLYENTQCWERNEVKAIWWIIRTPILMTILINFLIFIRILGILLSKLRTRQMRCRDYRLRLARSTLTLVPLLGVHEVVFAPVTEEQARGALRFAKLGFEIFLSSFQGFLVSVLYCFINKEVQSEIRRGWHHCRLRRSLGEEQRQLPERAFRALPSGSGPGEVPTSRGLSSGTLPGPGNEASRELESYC
Experimental: as §1

[3] = biological target: T3, human glucagon receptor (hGLUC R) (Homo sapiens, UniProt P47871); assay: cAMP response of HEK-293 cells stably expressing human glucagon receptor (HTRF)
T3 construct: expressed in transfected cells
T3 sequence (P47871 26-477): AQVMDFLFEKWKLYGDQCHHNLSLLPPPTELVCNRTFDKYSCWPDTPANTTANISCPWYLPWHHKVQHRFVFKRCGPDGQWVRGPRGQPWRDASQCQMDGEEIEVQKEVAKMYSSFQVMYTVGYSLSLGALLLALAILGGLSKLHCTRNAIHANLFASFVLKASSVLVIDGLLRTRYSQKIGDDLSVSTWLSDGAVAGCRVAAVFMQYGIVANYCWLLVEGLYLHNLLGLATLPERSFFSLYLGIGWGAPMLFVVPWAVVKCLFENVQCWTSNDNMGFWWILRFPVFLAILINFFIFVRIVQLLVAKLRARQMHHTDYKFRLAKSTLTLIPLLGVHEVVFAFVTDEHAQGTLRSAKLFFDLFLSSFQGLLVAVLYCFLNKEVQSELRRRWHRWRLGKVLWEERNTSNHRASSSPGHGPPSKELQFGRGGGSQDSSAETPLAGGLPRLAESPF
Experimental: as §1

Question: With `CCCCCCCCCCCCCCCC(=O)N[C@@H](CCC(=O)NCCCC[C@H](NC(=O)[C@H](CCC(N)=O)NC(=O)[C@@H](NC(=O)[C@H](CO)NC(=O)[C@H](CC(C)C)NC(=O)[C@H](CC(=O)O)NC(=O)[C@H](CO)NC(=O)[C@@H](NC(=O)[C@H](Cc1ccccc1)NC(=O)[C@@H](NC(=O)CNC(=O)[C@H](CCC(=O)O)NC(=O)C(C)(C)NC(=O)[C@@H](N)Cc1ccc(O)cc1)[C@@H](C)O)[C@@H](C)O)[C@@H](C)CC)C(=O)N[C@@H](CCC(=O)O)C(=O)N[C@@H](CCCCN)C(=O)N[C@@H](CCCNC(=N)N)C(=O)N[C@@H](C)C(=O)N[C@@H](C)C(=O)NC(C)(C)C(=O)N[C@@H](CCC(=O)O)C(=O)N[C@@H](Cc1ccccc1)C(=O)N[C@H](C(=O)N[C@@H](CCC(=O)O)C(=O)N[C@@H](Cc1c[nH]c2ccccc12)C(=O)N[C@@H](CC(C)C)C(=O)N[C@@H](CCCCN)C(=O)N[C@@H](CCCNC(=N)N)C(=O)N[C@@H](C)C(=O)NCC(=O)N1CCC[C@H]1C(=O)N[C@@H](CO)C(=O)N[C@@H](CO)C(=O)NCC(=O)N[C@@H](C)C(=O)N1CCC[C@H]1C(=O)N1CCC[C@H]1C(=O)N1CCC[C@H]1C(=O)N[C@@H](CO)C(N)=O)[C@@H](C)CC)C(=O)O` [SEQ ID NO: 20, Y-Aib-E-G-T-F-T-S-D-L-S-I-Q-K(yE-x53)-E-K-R-A-A-Aib-E-F-I-E-W-L-K- R-A-G-P-S-S-G-A-P-P-P-S-NH2] (H-Y[Aib]EGTFTSDLSIQK([γGlu-Palmitoyl])EKRAA[Aib]EFIEWLKRAGPSSGAPPPS-NH2) as the compound, how does the pEC50 [1] read?
Answer: Its pEC50 is 11.09.

Question: What about the pEC50 [2] of the same compound?
Answer: The pEC50 was 10.79.

Question: What about the pEC50 [3] of the same compound?
Answer: Its pEC50 is 7.74.

Question: With `CCCCCCCCCCCCCCCC(=O)N[C@@H](CCC(=O)NCCCC[C@H](NC(=O)[C@H](CCC(N)=O)NC(=O)[C@H](CCCCN)NC(=O)[C@H](CO)NC(=O)[C@H](CC(C)C)NC(=O)[C@H](CC(=O)O)NC(=O)[C@H](CO)NC(=O)[C@@H](NC(=O)[C@H](Cc1ccccc1)NC(=O)[C@@H](NC(=O)CNC(=O)[C@H](CCC(=O)O)NC(=O)C(C)(C)NC(=O)[C@@H](N)Cc1ccc(O)cc1)[C@@H](C)O)[C@@H](C)O)C(=O)N[C@@H](CC(=O)O)C(=O)N[C@@H](CCCCN)C(=O)N[C@@H](CCCNC(=N)N)C(=O)N[C@@H](C)C(=O)N[C@@H](C)C(=O)N[C@@H](CCC(N)=O)C(=O)N[C@@H](CC(=O)O)C(=O)N[C@@H](Cc1ccccc1)C(=O)N[C@H](C(=O)N[C@@H](CCC(=O)O)C(=O)N[C@@H](Cc1c[nH]c2ccccc12)C(=O)N[C@@H](CC(C)C)C(=O)N[C@@H](CCCCN)C(=O)N[C@@H](C)C(=O)NCC(=O)NCC(=O)N1CCC[C@H]1C(=O)N[C@@H](CO)C(=O)N[C@@H](CO)C(=O)NCC(=O)N[C@@H](C)C(=O)N1CCC[C@H]1C(=O)N1CCC[C@H]1C(=O)N1CCC[C@H]1C(=O)N[C@@H](CO)C(N)=O)[C@@H](C)CC)C(=O)O` [SEQ ID NO: 63, Y-Aib-E-G-T-F-T-S-D-L-S-K-Q-K(yE-x53)-DKRAAQDFIEWLKAGGPSSGAPPPS-NH2] (H-Y[Aib]EGTFTSDLSKQK([γGlu-Palmitoyl])DKRAAQDFIEWLKAGGPSSGAPPPS-NH2) as the compound, how does the pEC50 [1] read?
Answer: The pEC50 was 11.22.

Question: And the pEC50 [2]?
Answer: The pEC50 was 10.92.

Question: And the pEC50 [3]?
Answer: Its pEC50 is 8.78.

Question: Which results are given for `CCCCCCCCCCCCCCCCCC(=O)N[C@@H](CCC(=O)NCCCC[C@H](NC(=O)[C@H](CCC(N)=O)NC(=O)[C@@H](NC(=O)[C@H](CO)NC(=O)[C@H](CC(C)C)NC(=O)[C@H](CC(=O)O)NC(=O)[C@H](CO)NC(=O)[C@@H](NC(=O)[C@H](Cc1ccccc1)NC(=O)[C@@H](NC(=O)CNC(=O)[C@H](Cc1c[nH]cn1)NC(=O)C(C)(C)NC(=O)[C@@H](N)Cc1ccc(O)cc1)[C@@H](C)O)[C@@H](C)O)[C@@H](C)CC)C(=O)N[C@@H](CCC(=O)O)C(=O)N[C@@H](CCCCN)C(=O)N[C@@H](CCCNC(=N)N)C(=O)N[C@@H](C)C(=O)N[C@@H](C)C(=O)N[C@@H](Cc1ccccc1)C(=O)N[C@@H](CCC(=O)O)C(=O)N[C@@H](Cc1ccccc1)C(=O)N[C@H](C(=O)N[C@@H](CCC(=O)O)C(=O)N[C@@H](Cc1c[nH]c2ccccc12)C(=O)N[C@@H](CC(C)C)C(=O)N[C@@H](CCCCN)C(=O)N[C@@H](CC(N)=O)C(=O)N[C@H](C(=O)NCC(=O)N1CCC[C@H]1C(=O)N[C@@H](CO)C(=O)N[C@@H](CO)C(=O)NCC(=O)N[C@@H](C)C(=O)N1CCC[C@H]1C(=O)N1CCC[C@H]1C(=O)N1CCC[C@H]1C(=O)N[C@@H](CO)C(N)=O)[C@@H](C)O)[C@@H](C)CC)C(=O)O` [SEQ ID NO: 32, Y-Aib-H-G-T-F-T-S-D-L-S-I-Q-K(yE-x70)-EKRAAFEFIEWLKNTGPSSGAPPPS-NH2] (H-Y[Aib]HGTFTSDLSIQK([γGlu-Stearoyl])EKRAAFEFIEWLKNTGPSSGAPPPS-NH2)?
Answer: pEC50 [1]: 10.38; pEC50 [2]: 10.47; pEC50 [3]: 10.72

Question: How did the pEC50 [1] turn out when `CCCCCCCCCCCCCCCCCC(=O)N[C@@H](CCC(=O)NCCCC[C@H](NC(=O)[C@H](CCC(N)=O)NC(=O)[C@@H](NC(=O)[C@H](CO)NC(=O)[C@H](CC(C)C)NC(=O)[C@H](CC(=O)O)NC(=O)[C@H](CO)NC(=O)[C@@H](NC(=O)[C@H](Cc1ccccc1)NC(=O)[C@@H](NC(=O)CNC(=O)[C@H](CCC(N)=O)NC(=O)C(C)(C)NC(=O)[C@@H](N)Cc1ccc(O)cc1)[C@@H](C)O)[C@@H](C)O)[C@@H](C)CC)C(=O)N[C@@H](CC(=O)O)C(=O)N[C@@H](CCC(=O)O)C(=O)N[C@@H](CCC(N)=O)C(=O)N[C@@H](CCCNC(=N)N)C(=O)N[C@@H](C)C(=O)N[C@@H](CCCCN)C(=O)N[C@@H](CCC(=O)O)C(=O)N[C@@H](Cc1ccccc1)C(=O)N[C@H](C(=O)N[C@@H](CCC(=O)O)C(=O)N[C@@H](Cc1c[nH]c2ccccc12)C(=O)N[C@@H](CC(C)C)C(=O)N[C@@H](CCCCN)C(=O)N[C@@H](C)C(=O)NCC(=O)NCC(=O)N1CCC[C@H]1C(=O)N[C@@H](CO)C(=O)N[C@@H](CO)C(=O)NCC(=O)N[C@@H](C)C(=O)N1CCC[C@H]1C(=O)N1CCC[C@H]1C(=O)N1CCC[C@H]1C(=O)N[C@@H](CO)C(N)=O)[C@@H](C)CC)C(=O)O` [SEQ ID NO: 31, Y-Aib-Q-G-T-F-T-S-D-L-S-I-Q-K(yE-x70)-DEQRAKEFIEWLKAGGPSSGAPPPS-NH2] was run?
Answer: Its pEC50 is 10.83.

Question: What about the pEC50 [2] of the same compound?
Answer: Its pEC50 is 10.88.

Question: What about the pEC50 [3] of the same compound?
Answer: The pEC50 was 11.39.

Question: Which results are given for `CCCCCCCCCCCCCCCC(=O)N[C@@H](CCC(=O)NCCCC[C@H](NC(=O)[C@H](CCC(N)=O)NC(=O)[C@@H](NC(=O)[C@H](CO)NC(=O)[C@H](CC(C)C)NC(=O)[C@H](CC(=O)O)NC(=O)[C@H](CO)NC(=O)[C@@H](NC(=O)[C@H](Cc1ccccc1)NC(=O)[C@@H](NC(=O)CNC(=O)[C@H](CCC(N)=O)NC(=O)C(C)(C)NC(=O)[C@@H](N)Cc1ccc(O)cc1)[C@@H](C)O)[C@@H](C)O)[C@@H](C)CC)C(=O)N[C@@H](CCC(=O)O)C(=O)N[C@@H](CCCCN)C(=O)N[C@@H](Cc1ccc(O)cc1)C(=O)N[C@@H](C)C(=O)N[C@@H](C)C(=O)NC(C)(C)C(=O)N[C@@H](CCC(=O)O)C(=O)N[C@@H](Cc1ccccc1)C(=O)N[C@H](C(=O)N[C@@H](CCC(=O)O)C(=O)N[C@@H](Cc1c[nH]c2ccccc12)C(=O)N[C@@H](CC(C)C)C(=O)N[C@@H](CCCCN)C(=O)N[C@@H](CC(N)=O)C(=O)N[C@H](C(=O)NCC(=O)N1CCC[C@H]1C(=O)N[C@@H](CO)C(=O)N[C@@H](CO)C(=O)NCC(=O)N[C@@H](C)C(=O)N1CCC[C@H]1C(=O)N1CCC[C@H]1C(=O)N1CCC[C@H]1C(=O)N[C@@H](CO)C(N)=O)[C@@H](C)O)[C@@H](C)CC)C(=O)O` [SEQ ID NO: 10, Y-Aib-Q-G-T-F-T-S-D-L-S-I-Q-K(yE-x53)-E-K-Y-A-A-Aib-E-F-I-E-W-L-K-N-T-G-P-S-S-G-A-P-P-P-S-NH2] (H-Y[Aib]QGTFTSDLSIQK([γGlu-Palmitoyl])EKYAA[Aib]EFIEWLKNTGPSSGAPPPS-NH2)?
Answer: pEC50 [1]: 11.28; pEC50 [2]: 10.84; pEC50 [3]: 9.18
